GI50 data for 8 compounds are collected here from ChEMBL document CHEMBL1151909, “Mechanism of action of N-phenyl-N'-(2-chloroethyl)ureas in the colchicine-binding site at the interface between alpha- and beta-tubulin” (2009).

Broadly, the GI50 is the concentration at which growth is held to half of that of the control. A lower GI50 goes with greater sensitivity of the cells.

The experiment relates to HT-29. Kind of experiment: Antiproliferative activity against human HT-29 cells after 48 hrs by SRB assay. The format is functional. Conditions: HT-29, 48 h. In general terms: Sulforhodamine B stains cellular protein and so reports cell mass.
For `O=C(NCCCl)Nc1cccc(CCCCO)c1`, the 50% growth inhibitory concentration (GI50) was found to be 710 nM.

Compound `COc1ccc(CCc2cccc(NC(=O)NCCCl)c2)cc1O` came in with a 50% growth inhibitory concentration (GI50) of 9600 nM.

Consider `CC(=O)CCCCc1cccc(NC(=O)NCCCl)c1`, for which the 50% growth inhibitory concentration (GI50) amounted to 600 nM.

As for `O=C(NCCCl)Nc1cccc(CCCCCO)c1`, the GI50 was 160 nM.

Regarding `CCCCCc1cccc(NC(=O)NCCCl)c1`, the 50% growth inhibitory concentration (GI50) amounted to 620 nM. This GI50 lies about 3.9-fold higher than the previous one.

The compound `COCCCCCc1cccc(NC(=O)NCCCl)c1` returned a GI50 of 840 nM.

As for `O=C(NCCCl)Nc1cccc(CCCCCCO)c1`, the GI50 stood at 300 nM. Against the preceding compound, the GI50 is about 2.8-fold lower.

On to `COc1ccc(/C=C\c2ccc(NC(=O)NCCCl)cc2)cc1O`, for which the GI50 is 2400 nM.
